Measurements reported in ChEMBL document CHEMBL1127878, “Substituted lactam biphenyltetrazoles as angiotensin II mediated antihypertensives” (Bioorg Med Chem Lett, 1994).

Tests used:
Rattus norvegicus [1] = assay: Tested for total onset time(BP) after peroral administration of 30 mg/kg of dose in spontaneously hypertensive rat; type: functional; settings: route oral
Rattus norvegicus [2] = assay: Tested for percent of maximal blood pressure drop in high renin rat after peroral administration of 30 mg/kg of dose; type: functional; settings: route oral
Rattus norvegicus [3] = assay: Tested for percent of maximal blood pressure drop after peroral administration of 30 mg/kg in spontaneously hypertensive rat; type: functional; settings: route oral
[4] = target: T1, Type-1 angiotensin II receptor (Oryctolagus cuniculus, UniProt P34976); assay: In vitro binding affinity against Angiotensin II receptor in rabbit aorta rings; type: tissue-based; settings: read-out: pA2 (converted)
T1 sequence (P34976 whole entry): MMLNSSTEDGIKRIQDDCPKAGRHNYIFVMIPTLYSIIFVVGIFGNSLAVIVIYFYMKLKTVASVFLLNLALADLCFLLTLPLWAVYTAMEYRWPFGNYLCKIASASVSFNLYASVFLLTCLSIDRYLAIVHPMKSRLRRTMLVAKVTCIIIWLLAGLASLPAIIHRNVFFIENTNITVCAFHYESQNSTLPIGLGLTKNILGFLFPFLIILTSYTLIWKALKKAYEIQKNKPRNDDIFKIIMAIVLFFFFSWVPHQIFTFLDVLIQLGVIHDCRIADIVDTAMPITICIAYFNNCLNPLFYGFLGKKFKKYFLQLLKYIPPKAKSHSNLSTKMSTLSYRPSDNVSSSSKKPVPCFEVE

Rattus norvegicus [5] = assay: Tested for total duration time(BP) after peroral administration of 30 mg/kg of dose in spontaneously hypertensive rat; type: functional; settings: route oral
Rattus norvegicus [6] = assay: Tested for total onset time(BP) after peroral administration of 30 mg/kg of dose in high renin rat; type: functional; settings: route oral
Rattus norvegicus [7] = assay: Tested for total duration time(BP) after peroral administration of 30 mg/kg of dose in high renin rat; type: functional; settings: route oral
Rattus norvegicus [8] = assay: Dose (iv) required for graded reduction in mean arterial blood pressure in spontaneously hypertensive rat (also, 10 mg/kg); type: functional

Structure (SMILES)	Kb [4]	Onset (Rattus norvegicus [1])	Max drop (Rattus norvegicus [2])	Max drop (Rattus norvegicus [3])	Duration (Rattus norvegicus [5])	Onset (Rattus norvegicus [6])	Duration (Rattus norvegicus [7])	Max drop (Rattus norvegicus [2]; 30 mg/kg)	Onset (Rattus norvegicus [6]; 30 mg/kg)	Duration (Rattus norvegicus [7]; 30 mg/kg)	Onset (Rattus norvegicus [1]; 30 mg/kg)	Dose (Rattus norvegicus [8])	Max drop (Rattus norvegicus [3]; 30 mg/kg)	Duration (Rattus norvegicus [5]; 30 mg/kg)
CCOC(=O)/C=C1\CC2(CCCC2)C(=O)N1Cc1ccc(-c2ccccc2-c2nn[nH]n2)cc1	3.16 nM		20%			2 h	3 h							
CCCCC1(C)CC(=O)N(Cc2ccc(-c3ccccc3-c3nn[nH]n3)cc2)/C(=C/C(=O)OCC)C1 (configuration not stated)	31.6 nM	0.5 h	98%	98%	24 h									
CCOC(=O)/C=C1\CC2(CCCCCC2)C(=O)N1Cc1ccc(-c2ccccc2-c2nn[nH]n2)cc1	3.98 nM	1.5 h	31%	80%	16 h	0.75 h	23 h							
CCOC(=O)/C=C1\CC2(CCCCC2)C(=O)N1Cc1ccc(-c2ccccc2-c2nn[nH]n2)cc1	12.6 nM		26%			1 h	17 h							
CCCC1(CC)CC(=O)N(Cc2ccc(-c3ccccc3-c3nn[nH]n3)cc2)/C(=C/C(=O)OCC)C1 (configuration not stated)	12.6 nM	3 h	18%	18%	6 h									
CCOC(=O)/C=C1\CC2(CCCC2)CC(=O)N1Cc1ccc(-c2ccccc2-c2nn[nH]n2)cc1	12.6 nM		46%			2.5 h	21 h							
CCOC(=O)/C=C1\CC2(CCCCC2)CC(=O)N1Cc1ccc(-c2ccccc2-c2nn[nH]n2)cc1	5.01 nM	0.25 h	100%	100%	8 h									
CCCCC1(CC)CC(=O)N(Cc2ccc(-c3ccccc3-c3nn[nH]n3)cc2)/C(=C/C(=O)OCC)C1 (configuration not stated)	100 nM	0.25 h	55%	55%	8 h									
CCCCc1nc(Cl)c(CO)n1Cc1ccc(-c2ccccc2-c2nnn[nH]2)cc1 [LOSARTAN]		2 h	100%	100%	24 h	2 h	24 h							

More lines, main results first:

Kb [4]	Structure (SMILES)	Onset (Rattus norvegicus [1])	Max drop (Rattus norvegicus [2])	Max drop (Rattus norvegicus [3])	Duration (Rattus norvegicus [5])	Onset (Rattus norvegicus [6])	Duration (Rattus norvegicus [7])	Max drop (Rattus norvegicus [2]; 30 mg/kg)	Onset (Rattus norvegicus [6]; 30 mg/kg)	Duration (Rattus norvegicus [7]; 30 mg/kg)	Onset (Rattus norvegicus [1]; 30 mg/kg)	Dose (Rattus norvegicus [8])	Max drop (Rattus norvegicus [3]; 30 mg/kg)	Duration (Rattus norvegicus [5]; 30 mg/kg)
20 nM	CCOC(=O)/C=C1\C2C3C=CC(CCC3)C2C(=O)N1Cc1ccc(-c2ccccc2-c2nn[nH]n2)cc1 (configuration not stated)	0.25 h	96%	96%	24 h									
1 nM	CCOC(=O)/C=C1\C2C3CCC(C3)C2C(=O)N1Cc1ccc(-c2ccccc2-c2nn[nH]n2)cc1 (configuration not stated)		26%			1 h	17 h							
15.8 nM	CCOC(=O)/C=C1\CC(C)(C(C)C)CC(=O)N1Cc1ccc(-c2ccccc2-c2nn[nH]n2)cc1 (configuration not stated)	1.25 h	70%	70%	5 h									
39.8 nM	CCOC(=O)/C=C1\CC(C)(C)CC(=O)N1Cc1ccc(-c2ccccc2-c2nn[nH]n2)cc1		17%			2 h	5 h							
6.31 nM	CCOC(=O)/C=C1\C2C3C=CC(CC3)C2C(=O)N1Cc1ccc(-c2ccccc2-c2nn[nH]n2)cc1 (stereo in doubt; 5)							29%	1.75 h	17 h				
10 nM	CCOC(=O)/C=C1\C2C3C=CC(CC3)C2C(=O)N1Cc1ccc(-c2ccccc2-c2nn[nH]n2)cc1 (stereo in doubt; 7)	1 h		86%	13 h			43%	0.25 h	10 h				
1 nM	CCOC(=O)/C=C1\CC(C)(CC)CC(=O)N1Cc1ccc(-c2ccccc2-c2nn[nH]n2)cc1 (stereo in doubt; 9)					0.25 h	<24 h	100%			0.25 h	3 mg/kg	100%	24 h
3.98 nM	CCOC(=O)/C=C1\CC(CC)(CC)CC(=O)N1Cc1ccc(-c2ccccc2-c2nn[nH]n2)cc1 (stereo in doubt; 11)							35%			0.75 h		35%	15 h
2.51 nM	CCOC(=O)/C=C1\CC(C)(CC)CC(=O)N1Cc1ccc(-c2ccccc2-c2nn[nH]n2)cc1 (stereo in doubt; 13)							58%			0.5 h		58%	16 h
7.94 nM	CCOC(=O)/C=C1\CC(CC)(CC)CC(=O)N1Cc1ccc(-c2ccccc2-c2nn[nH]n2)cc1 (stereo in doubt; 16)							100%			0.25 h		100%	24 h
